Assay results: ChEMBL document CHEMBL1140633, “The application of 3D-QSAR studies for novel cannabinoid ligands substituted at the C1' position of the alkyl side chain on the structural requirements for binding to cannabinoid receptors CB1 and CB2” (J Med Chem, 2007)

Columns and labels:
Cannabinoid receptor 2 = Cannabinoid receptor 2 (Homo sapiens, UniProt P34972); assay: Binding affinity to CB2 receptor
Cannabinoid receptor 1 = Cannabinoid receptor 1 (Homo sapiens, UniProt P21554); assay: Binding affinity to CB1 receptor
Chain of Cannabinoid receptor 1 (P21554 whole entry): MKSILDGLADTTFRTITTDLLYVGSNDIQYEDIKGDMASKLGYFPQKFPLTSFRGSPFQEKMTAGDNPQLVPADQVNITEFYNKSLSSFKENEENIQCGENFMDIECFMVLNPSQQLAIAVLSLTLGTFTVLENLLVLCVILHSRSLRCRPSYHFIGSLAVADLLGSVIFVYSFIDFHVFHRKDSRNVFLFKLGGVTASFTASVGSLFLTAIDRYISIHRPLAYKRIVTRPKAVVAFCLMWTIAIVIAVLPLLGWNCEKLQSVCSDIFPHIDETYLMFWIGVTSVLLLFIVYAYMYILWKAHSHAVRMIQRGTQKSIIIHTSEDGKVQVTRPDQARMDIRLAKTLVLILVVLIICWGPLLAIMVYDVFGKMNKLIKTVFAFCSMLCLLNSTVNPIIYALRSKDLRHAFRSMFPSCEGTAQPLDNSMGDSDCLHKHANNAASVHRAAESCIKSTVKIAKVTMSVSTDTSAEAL

Chain of Cannabinoid receptor 2 (P34972 whole entry): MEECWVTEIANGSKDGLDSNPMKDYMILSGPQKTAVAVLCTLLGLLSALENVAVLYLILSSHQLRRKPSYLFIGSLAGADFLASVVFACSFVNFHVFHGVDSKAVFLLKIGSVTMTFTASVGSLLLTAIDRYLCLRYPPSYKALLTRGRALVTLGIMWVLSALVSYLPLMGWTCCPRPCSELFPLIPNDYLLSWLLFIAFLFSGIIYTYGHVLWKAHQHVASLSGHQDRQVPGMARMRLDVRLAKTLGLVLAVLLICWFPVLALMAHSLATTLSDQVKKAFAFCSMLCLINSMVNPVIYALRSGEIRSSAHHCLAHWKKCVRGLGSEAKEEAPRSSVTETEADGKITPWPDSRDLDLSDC

SMILES | Ki (Cannabinoid receptor 2) [nM] | Ki (Cannabinoid receptor 1) [nM]
CCCCCCC1(c2cc(O)c3c(c2)OC(C)(C)[C@@H]2CC=C(C)C[C@@H]32)SCCS1 | 0.52 | 0.32
CC1=CC[C@@H]2[C@@H](C1)c1c(O)cc(C(C)(C)CCCCC#N)cc1OC2(C)C | 1.1 | 1.75
CC1=CC[C@@H]2[C@@H](C1)c1c(O)cc(CCCC(C)C)cc1OC2(C)C |  | 141
CC1=CC[C@@H]2[C@@H](C1)c1c(O)cc(C3SCCS3)cc1OC2(C)C | 103 | 168
CC1=CC[C@@H]2[C@@H](C1)c1c(O)cc(C(C)(C)CCCCOc3ccc(C#N)cc3)cc1OC2(C)C | 1.1 | 1.5
CCCc1ccc(-c2cc(O)c3c(c2)OC(C)(C)[C@@H]2CC=C(C)C[C@@H]32)cc1 | 108 | 57.8
CCCCCCC1(c2cc(O)c3c(c2)OC(C)(C)[C@@H]2CC=C(C)C[C@@H]32)OCCO1 | 0.22 | 0.52
C=C(C)C1CCC(C)=C[C@H]1c1c(O)cc(-c2cccc3ccccc23)cc1O (stereo partly specified) | 222 | 754
CC1=CC[C@@H]2[C@@H](C1)c1c(O)cc(C34CC5CC(CC(C5)C3)C4)cc1OC2(C)C | 52 | 6.8
CC1=CC[C@@H]2[C@@H](C1)c1c(O)cc(C3(C#N)CCCCC3)cc1OC2(C)C | 3.86 | 8.26
CCCCC(C)(C)c1cc(O)c2c(c1)OC(C)(C)[C@@H]1CC=C(C)C[C@@H]21 |  | 3.9
CC1=CC[C@@H]2[C@@H](C1)c1c(O)cc(-c3ccc(C)cc3)cc1OC2(C)C | 71.8 | 95.5
CCCCCC(C)(C)c1cc(O)c2c(c1)OC(C)(C)[C@@H]1CC=C(C)C[C@@H]21 |  | 2.7
CC1=CC[C@@H]2[C@@H](C1)c1c(O)cc(-c3cccc4ccccc34)cc1OC2(C)C | 9.39 | 11.7
CC1=CC[C@@H]2[C@@H](C1)c1c(O)cc(CCCCCN=[N+]=[N-])cc1OC2(C)C |  | 19
CCCCCCC1(c2cc(O)c3c(c2)OC(C)(C)[C@@H]2CC=C(C)C[C@@H]32)SCCCS1 | 3.6 | 1.8
C=C(C)C1CCC(C)=C[C@H]1c1c(O)cc(C2(CCCCCC)CC2(Cl)Cl)cc1O (stereo partly specified) | 32.9 | 666
CCCCCCC1(c2cc(O)c3c(c2)OC(C)(C)[C@@H]2CC=C(C)C[C@@H]32)CC1 | 0.86 | 0.44
CCCCCCCc1cc(O)c2c(c1)OC(C)(C)[C@@H]1CC=C(C)C[C@@H]21 |  | 22
C=C(C)C1CCC(C)=C[C@H]1c1c(O)cc(C2(CCCCCC)CC2)cc1O (stereo partly specified) | 99.2 | 58.7
CC1=CC[C@@H]2[C@@H](C1)c1c(O)cc(C(C)(C)CCCCCC#N)cc1OC2(C)C | 2.9 | 0.2

SMILES | Ki (Cannabinoid receptor 2) [nM] | Ki (Cannabinoid receptor 1) [nM]
CCCCCCC1(c2cc(O)c3c(c2)OC(C)(C)[C@@H]2CC=C(C)C[C@@H]32)CCCC1 | 1.92 | 0.45
CCc1ccc(-c2cc(O)c3c(c2)OC(C)(C)[C@@H]2CC=C(C)C[C@@H]32)cc1 | 51.7 | 119
C=C(C)C1CCC(C)=C[C@H]1c1c(O)cc(C2(CCCCCC)SCCS2)cc1O (stereo partly specified) | 50.4 | 136
C=C(CCCCCC)c1cc(O)c2c(c1)OC(C)(C)[C@@H]1CC=C(C)C[C@@H]21 | 3.3 | 2.17
CCCCCCC1(c2cc(O)c3c(c2)OC(C)(C)[C@@H]2CC=C(C)C[C@@H]32)Sc2ccccc2S1 | 257 | 56.9
C=C(C)C1CCC(C)=C[C@H]1c1c(O)cc(C2(C#N)CCCCC2)cc1O (stereo partly specified) | 111 | 319
CCCCCCC1(c2cc(O)c3c(c2)OC(C)(C)[C@@H]2CC=C(C)C[C@@H]32)CC1(Cl)Cl (stereo partly specified) | 0.29 | 1.27
CC1=CC[C@@H]2[C@@H](C1)c1c(O)cc(C(C)(C)C3CCCC3)cc1OC2(C)C | 0.39 | 0.34
CCCCCCC1(c2cc(O)c3c(c2)OC(C)(C)[C@@H]2CC=C(C)C[C@@H]32)CC1(Br)Br (stereo partly specified) | 1.03 | 0.71
CCCCCCC1(c2cc(O)c3c(c2)OC(C)(C)[C@@H]2CC=C(C)C[C@@H]32)SC(C)C(C)S1 (stereo partly specified) | 19.7 | 32.3
C=C(C)C1CCC(C)=C[C@H]1c1c(O)cc(-c2ccc(C)cc2)cc1O (stereo partly specified) | 374 | 638
CC1=CC[C@@H]2[C@@H](C1)c1c(O)cc(C(C)(C)C3CCCCCC3)cc1OC2(C)C | 0.22 | 0.94
CCCC(C)(C)c1cc(O)c2c(c1)OC(C)(C)[C@@H]1CC=C(C)C[C@@H]21 |  | 10.9
C=C(C)C1CCC(C)=C[C@H]1c1c(O)cc(C2(C#N)CCCC2)cc1O (stereo partly specified) | 105 | 255
CC1=CC[C@@H]2[C@@H](C1)c1c(O)cc(C(C)(C)CCCCC(=O)NN3CCCCC3)cc1OC2(C)C | 3.2 | 4.5
CC1=CC[C@@H]2[C@@H](C1)c1c(O)cc(Oc3ccccc3)cc1OC2(C)C | 23.6 | 297
C=C(C)C1CCC(C)=C[C@H]1c1c(O)cc(C2(CCCCCC)CC2(Br)Br)cc1O (stereo partly specified) | 63.3 | 189
CC1=CC[C@@H]2[C@@H](C1)c1c(O)cc(C(C)(C)C)cc1OC2(C)C |  | 14
CCCCCCC(=O)c1cc(O)c2c(c1)OC(C)(C)[C@@H]1CC=C(C)C[C@@H]21 | 83.7 | 21.7
CC1=CC[C@@H]2[C@@H](C1)c1c(O)cc(C3(C#N)CCCC3)cc1OC2(C)C | 25.2 | 27.9
CC1=CC[C@@H]2[C@@H](C1)c1c(O)cc(C(C)(C)CCCCBr)cc1OC2(C)C |  | 0.43
